pEC50, pIC50: −log10 of the molar value. Where two headings read alike, the source gives them in different places.
Tests used:
[1] = biological target: T1, human estrogen receptor α (Homo sapiens, UniProt P03372); assay: Estrogen Receptor α Flash Plate Assay (binding of radiolabeled estrogen); details: for IC50: flash plate binding, 0.5 nM radiolabeled estrogen, number in brackets = No. of determinations, NA = no detected activity at test concentration, read-out: Estrogen Receptor α in μM (No.)
T1 construct: purchased Panvera
T1 sequence (P03372 1-595): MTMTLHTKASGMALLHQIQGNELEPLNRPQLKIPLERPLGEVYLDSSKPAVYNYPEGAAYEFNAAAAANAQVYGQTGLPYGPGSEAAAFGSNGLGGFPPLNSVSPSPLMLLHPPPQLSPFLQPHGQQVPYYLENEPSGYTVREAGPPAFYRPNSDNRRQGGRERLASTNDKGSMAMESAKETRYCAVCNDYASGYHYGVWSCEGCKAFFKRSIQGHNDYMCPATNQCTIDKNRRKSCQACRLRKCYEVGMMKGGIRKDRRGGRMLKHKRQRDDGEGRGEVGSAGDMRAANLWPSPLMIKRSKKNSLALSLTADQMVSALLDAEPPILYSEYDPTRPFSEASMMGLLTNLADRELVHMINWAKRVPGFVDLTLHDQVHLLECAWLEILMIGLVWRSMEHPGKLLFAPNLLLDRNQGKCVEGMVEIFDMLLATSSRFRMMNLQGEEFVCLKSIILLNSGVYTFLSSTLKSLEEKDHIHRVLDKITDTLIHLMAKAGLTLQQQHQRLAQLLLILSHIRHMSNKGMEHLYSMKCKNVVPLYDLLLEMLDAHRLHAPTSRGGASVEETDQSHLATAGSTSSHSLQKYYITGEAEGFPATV
Description: This assay monitors binding of radiolabeled estrogen to the estrogen receptor. It is performed on a BioMek 2000 (Beckman). Plates are read in a scintillation counter (Packard TopCount), with decreased counts an indication of binding of a compound to the receptor.
The plate was sealed and incubated at 4° C. overnight.
On day two, each well was washed three times with 200 μL PBS, pH 7.2, at room temperature. To each well was then added 98 μL radiolabeled estrogen (0.5 nM, which equals 6 nCi for a 120 Ci/mmol batch, Amersham), diluted in ESB and 5 mM dithiothreitol (DTT). To individual wells were then added 2.5 μL test compound diluted in 30% (v/v) dimethyl sulfoxide/50 mM HEPES, pH 7.5. The wells were mixed three times by aspiration, the plate sealed and incubated at room temperature for one hour. The wells were then counted for 1 min in a TopCount scintillation counter (Packard).

[2] = tested on: MCF-7 cells; assay: MCF-7 Cell Proliferation Assay (14C-thymidine, agonist and antagonist mode); assay type: cell-based; details: number in brackets = number of tests, NA = no detected activity at test concentration
Description: This assay was run according to the procedure described by Welshons, et al., (Breast Cancer Res. Treat., 1987, 10(2), 169-75), with minor modification.
Briefly, MCF-7 cells (from Dr. C. Jordan, Northwestern University) were maintained in RPMI 1640 phenol red free medium (Gibco) in 10% FBS (Hyclone), supplemented with bovine insulin and non-essential amino acid (Sigma). The cells were initially treated with 4-hydoxyltamoxifen (10^−8 M) and let stand at 37° C. for 24 hours. Following this incubation with tamoxifen, the cells were treated with compounds at various concentrations.
Compounds to be tested in the agonist mode were added to the culture media at varying concentrations. Compounds to be treated in the antagonist mode were prepared similarly, and 10 nM 17β-estradiol was also added to the culture media. The cells were incubated for 24 hours at 37° C. Following this incubation, 0.1 μCi of ^14C-thymidine (56 mCi/mmol, Amersham) was added to the culture media and the cells were incubated for an additional 24 hours at 37° C. The cells were then washed twice with Hank's buffered salt solution (HBSS) (Gibco) and counted with a scintillation counter. The increase in the ^14C-thymidine in the compound treated cells relative to the vehicle control cells were reported as percent increase in cell proliferation.

[3] = tested on: Ishikawa cells; assay: Alkaline Phosphatase Assay in Human Endometrial Ishikawa Cells (agonist and antagonist mode); assay type: cell-based; details: number in brackets = number of tests, NA = no detected activity at test concentration; for pIC50: antagonist mode with 10 nM 17β-estradiol; for pEC50: agonist mode
Description: This assay was run according to the procedure described by Albert et a., Cancer Res, […], 50(11), 330-6-10, with minor modification.
Ishikawa cells (from ATCC) were maintained in DMEM/F12 (1:1) phenol red free medium (Gibco) supplemented with 10% calf serum (Hyclone). 24 hours prior to testing, the medium was changed to DMEM/F12 (1:1) phenol red free containing 2% calf serum.
Compounds to be tested in the agonist mode were added to the culture media at varying concentrations. Compounds to be treated in the antagonist mode were prepared similarly, and 10 nM 17β-estradiol was also added to the culture media. The cells were then incubated at 37° C. for 3 days. On the fourth day, the media was remove, 1 volume of 1× Dilution Buffer (Clontech) was added to the well followed by addition of 1 volume of Assay Buffer (Clontech). The cells were then incubated at room temperature for 5 minutes. […] The cells were incubated at room temperature for 10 minutes and then quantified on a luminometer. The increase of chemiluminescence over vehicle control was used to calculate the increase in alkaline phosphatase activity.

[4] = antagonist mode with 10 nM 17β-estradiol
[5] = Homo sapiens, MCF7, antagonist mode with 10 nM 17β-estradiol
[6] = Homo sapiens, MCF7, agonist mode

Row | Compound | IC50 [1] [µM] | pIC50 [2, 4] | pIC50 [3] | other results
1 | OCCCOc1ccc(C2Oc3cc(O)ccc3C3=C2c2ccc(O)cc2OCC3)cc1 (racemic) [Compound 183] | 0.014 | ≤ 5.00 | 5.52 | 
2 | COC(=O)COc1ccc(C2Oc3cc(O)ccc3C3=C2c2ccc(O)cc2OCC3)cc1 (racemic) [Compound 190] | 0.0089 | < 5.00 | < 5.00 | 
3 | CC(C)(C)C(=O)Oc1ccc2c(c1)OC(c1ccc(OCCN3CCCCC3)cc1)C1=C2COc2cc(OC(=O)C(C)(C)C)ccc21 (single isomer, unassigned) [Compound 24] | 5.95 | 6.17 | 7.18 | pEC50 ([2]; agonist mode): < 5.00; pEC50 [3]: < 5.00
4 | CC(C)(C)C(=O)Oc1ccc2c(c1)OC(c1ccc(OCCN3CCCCC3)cc1)C1=C2COc2cc(OC(=O)C(C)(C)C)ccc21 (single isomer, unassigned) [Compound 25] | 1.2 | 5.86 | 6.63 | pEC50 ([2]; agonist mode): < 5.00; pEC50 [3]: < 5.00
5 | CC(C)(C)C(=O)Oc1ccc2c(c1)OC(c1ccc(OCCN3CCCCC3)cc1)C1=C2COc2cc(O)ccc21 (single isomer, unassigned) [Compound 89, 2,2-Dimethyl-propionic acid 8-hydroxy-11S*-(+)-[4-(2-piperidin-1-yl-ethoxy)-phenyl]-5,11-dihydro-chromeno[4,3-c]chromen-2-yl ester] | > 1 | 6.07 | 8.00 | 
6 | CC(C)(C)C(=O)Oc1ccc2c(c1)OCC1=C2C(c2ccc(OCCN3CCCCC3)cc2)Oc2cc(O)ccc21 (single isomer, unassigned) [Compound 90, 2,2-Dimethyl-propionic acid 8-hydroxy-5S*(+)-[4-(2-piperidin-1-yl-ethoxy)-phenyl]-5,11-dihydro-chromeno[4,3-c]chromen-2-yl ester] | 0.0066 | 5.78 | 7.24 | 
7 | Oc1ccc2c(c1)OC(c1ccc(OCCN3CCCCC3)cc1)C1=C2CCOc2cc(O)ccc21 (single isomer, unassigned) [Compound 99, 5R*-(+)-[4-(2-Piperidin-1-yl-ethoxy)-phenyl]-11,12-dihydro-5H-6,13-dioxa-benzo[3,4]cyclohepta[1,2-a]naphthalene-2,8-diol] | 0.0039 | 6.74 | 6.89 | 
8 | Oc1ccc2c(c1)OC(c1ccc(OCCN3CCCCC3)cc1)C1=C2CCOc2cc(O)ccc21 (single isomer, unassigned) [Compound 100, 5S*-(−)-[4-(2-Piperidin-1-yl-ethoxy)-phenyl]-11,12-dihydro-5H-6,13-dioxa-benzo[3,4]cyclohepta[1,2-a]naphthalene-2,8-diol] |  |  |  | pIC50 [1]: 8.59; pIC50 [2, 5]: 7.12; pIC50 ([3]; Homo sapiens): 7.72
9 | Oc1ccc2c(c1)OC(c1ccc(OCCN3CCCCC3)cc1)C1=C2CCCOc2cc(O)ccc21 (single isomer, unassigned) [Compound 125] |  | 5.33 | 5.79 | 
10 | Oc1ccc2c(c1)OC(c1ccc(OCCN3CCCCC3)cc1)C1=C2CCCOc2cc(O)ccc21 (single isomer, unassigned) [Compound 126] |  | 6.61 | 7.11 | 
11 | Oc1ccc2c(c1)OC(c1ccc(OCCN3CCCCC3)cc1)C1=C2CCOc2ccccc21 (single isomer, unassigned) [Compound 131] | 0.061 | < 5.00 | 5.31 | 
12 | Oc1ccc2c(c1)OC(c1ccc(OCCN3CCCCC3)cc1)C1=C2CCOc2ccccc21 (single isomer, unassigned) [Compound 132] | 0.0048 | 5.89 | 6.26 | 
13 | CN(C)CCOc1ccc(C2Oc3ccccc3C3=C2c2ccc(O)cc2OCC3)cc1 (single isomer, unassigned) [Compound 150] |  | 5.53 | 6.07 | 
14 | CN(C)CCOc1ccc(C2Oc3ccccc3C3=C2c2ccc(O)cc2OCC3)cc1 (single isomer, unassigned) [Compound 151] |  | 5.56 | 6.22 | 
15 | CN(C)CCOc1ccc(C2Oc3cc(O)ccc3C3=C2c2ccc(O)cc2OCC3)cc1 (single isomer, unassigned) [Compound 163] |  | 6.16 | 6.39 | 
16 | CN(C)CCOc1ccc(C2Oc3cc(O)ccc3C3=C2c2ccc(O)cc2OCC3)cc1 (single isomer, unassigned) [Compound 164] |  | 6.53 | 7.21 | 
17 | Oc1ccc2c(c1)OC(c1ccc(OCCN3CCCCCC3)cc1)C1=C2CCOc2cc(O)ccc21 (single isomer, unassigned) [Compound 165] |  |  | 6.89 | 
18 | Oc1ccc2c(c1)OC(c1ccc(OCCN3CCCCCC3)cc1)C1=C2CCOc2cc(O)ccc21 (single isomer, unassigned) [Compound 166] |  |  | 7.39 | 
19 | COc1ccc2c(c1)O[C@@H](c1ccc(OCCN3CCCCC3)cc1)C1=C2COc2cc(O)ccc21 (single isomer, unassigned) [Compound 176, 8-Methoxy-5S-[4-(2-piperidin-1-yl-ethoxy)-phenyl]-5,11-dihydro-chromeno[4,3-c]chromen-2-ol] | 0.024 |  |  | 
20 | CC(C)(C)C(=O)Oc1ccc2c(c1)OC(c1ccc(OCCN3CCCCC3)cc1)C1=C2CCOc2cc(OC(=O)C(C)(C)C)ccc21 (single isomer, unassigned) [Compound 179] |  | 5.73 | 8.05 | 
21 | CC(C)(C)C(=O)Oc1ccc2c(c1)OC(c1ccc(OCCN3CCCCC3)cc1)C1=C2CCOc2cc(OC(=O)C(C)(C)C)ccc21 (single isomer, unassigned) [Compound 180] |  | 6.18 | 9.05 | 
22 | COC1Oc2cc(OC(=O)C(C)(C)C)ccc2C2=C1c1ccc(OC(=O)C(C)(C)C)cc1OC2c1ccc(OCCN2CCCCC2)cc1 (centres unmarked) [Compound 27] | 0.69 |  |  | 
23 | CC(C)(C)C(=O)Oc1ccc2c(c1)OC(C)(c1ccc(OCCN3CCCC3)cc1)C1=C2COc2cc(OC(=O)C(C)(C)C)ccc21 (centres unmarked) [Compound 30, 2,2-Dimethyl-propionic acid, 8-(2,2-dimethyl-propionyloxy)-5-methyl-5-[4-(2-pyrrolidin-1-yl-ethoxy)-phenyl]-5,11-dihydro-chromeno[4,3-c]chromen-2-yl ester] |  |  |  | pEC50 [2, 6]: < 5.00; pIC50 [2, 5]: 5.66; pEC50 ([3]; Homo sapiens): < 5.00; pIC50 ([3]; Homo sapiens): 6.20
24 | CC(C)(C)C(=O)Oc1ccc2c(c1)OC(C)(c1ccc(OCCN3CCCCCC3)cc1)C1=C2COc2cc(OC(=O)C(C)(C)C)ccc21 (centres unmarked) [Compound 33, 11-[4-(2-azepan-1-yl-ethoxy)-phenyl]-8-(2,2-dimethyl-propionyloxy)-11-methyl-5,11-dihydro-chromeno[4,3-c]chromen-2-yl ester] |  |  |  | pEC50 [2, 6]: < 5.00; pIC50 [2, 5]: 5.32; pEC50 ([3]; Homo sapiens): < 5.00; pIC50 ([3]; Homo sapiens): 6.00

— patent publication US7105679B2, “Heteroatom containing tetracyclic derivatives as selective estrogen receptor modulators” (priority 2001, dated 2006)
